Like-named read-outs stand apart in the source and are kept apart here.
Tests used:
[1] = decadic logarithm of molar solubility in MCTs, cited from earlier work
[2] = Drug solubility in medium-chain triglycerides (MCT, Miglyol 812 N); SORESOS 96-well assay, miniaturized shake-flask or literature; settings: decadic logarithm of molar solubility in MCTs (Miglyol 812 N), 24 h at room temperature; no literature source given
Experimental: The excipient complies with the quality specifications of the European Pharmacopoeia. The solvents used for the ultra-performance liquid chromatography (UPLC) quantification were of UPLC grade.
(b) employing a miniaturized version of the shake-flask method in 2 mL glass vials,[33] or (c) collecting data from the literature.[12],[34] Each of the employed assays involved residual solid-state screenings by powder X-ray diffraction to identify potential solid-state changes during solubility screenings.

[3] = ref Alsenz, J. and Kuentz, M., 2019
[4] = ref Alskär, L.C., Porter, C.J. and Bergström, C.A., 2016
[5] = ref Wyttenbach, N., Niederquell, A., Ectors, P. and Kuentz, M., 2022

Molecule	log10 S [M] [1, 3] [M]	log10 S [M] [2] [M]	other results
CN1C(C(=O)Nc2ccccn2)=C(O)c2ccccc2S1(=O)=O [piroxicam]	-2.25		
CCCN(CCC)S(=O)(=O)c1ccc(C(=O)O)cc1 [probenecid]	-2.16		
CCOC(=O)C1=C(C)NC(C)=C(C(=O)OC)C1c1cccc(Cl)c1Cl (stereo not shown) [felodipine]			log10 S [M] [1, 4]: -1.16 M
COc1ccc(Cl)cc1C(=O)NCCc1ccc(S(=O)(=O)NC(=O)NC2CCCCC2)cc1 [glibenclamide]	-3.62		
COc1cc2c(c(OC)c1OC)-c1ccc(OC)c(=O)cc1[C@@H](NC(C)=O)CC2 [colchicine]	-2.34		
COc1ccc2cc([C@H](C)C(=O)O)ccc2c1 [naproxen]			log10 S [M] [1, 4]: -1.38 M
O=C(CCCN1CCC(O)(c2ccc(Cl)cc2)CC1)c1ccc(F)cc1 [haloperidol]	-2.38		
Nc1ccc(S(=O)(=O)Nc2ccnn2-c2ccccc2)cc1 [sulfaphenazole]	-3.03		
COc1ccc2c(c1)c(CC(=O)O)c(C)n2C(=O)c1ccc(Cl)cc1 [indomethacin]	-2.01		
bezafibrate			log10 S [M] [1, 4]: -3.22 M
CCOc1nc2cccc(C(=O)O)c2n1Cc1ccc(-c2ccccc2-c2nnn[nH]2)cc1 [candesartan]			log10 S [M] [1, 4]: -4.64 M
C#C[C@]1(O)CC[C@H]2[C@@H]3CCc4cc(O)ccc4[C@H]3CC[C@@]21C [ethinylestradiol]			log10 S [M] [1, 4]: -0.83 M
O=C(C1CCCCC1)N1CC(=O)N2CCc3ccccc3C2C1 (stereo not shown) [praziquantel]			log10 S [M] [1, 4]: -1.38 M
Cc1ccc(-c2cc(C(F)(F)F)nn2-c2ccc(S(N)(=O)=O)cc2)cc1 [celecoxib]			log10 S [M] [1, 5]: -1.66 M
Nc1ccc(S(=O)(=O)Nc2nccs2)cc1 [sulfathiazole]			log10 S [M] ([1]; ref Wyttenbach, N. 2007, AAPS PharmSci360 Poster W4355): -3.93 M
CC(C)(C)NCC(O)COc1cccc2c1CC(O)C(O)C2 (stereo not shown) [nadolol]	-3.23		
reserpine	-3.06		
CC(=O)Nc1ccc(O)cc1 [paracetamol]	-2.50		
O=C1[C@H](CC[C@H](O)c2ccc(F)cc2)[C@@H](c2ccc(O)cc2)N1c1ccc(F)cc1 [ezetimibe]	-2.16		
NC(=O)N1c2ccccc2C=Cc2ccccc21 [carbamazepine]			log10 S [M] [1, 5]: -2.09 M
O=C(O)c1cc(-c2ccc(F)cc2F)ccc1O [diflunisal]			log10 S [M] [1, 4]: -1.18 M

Molecule	log10 S [M] [1, 3] [M]	log10 S [M] [2] [M]	other results
CC(C(=O)O)c1ccc(-c2ccccc2)c(F)c1 (stereo not shown) [flurbiprofen]	-0.86		
Cc1ccccc1-c1cc(N2CCOCC2)ncc1N(C)C(=O)C(C)(C)c1cc(C(F)(F)F)cc(C(F)(F)F)c1 [befetupitant]	-1.08		
Clc1ccccc1C(c1ccccc1)(c1ccccc1)n1ccnc1 [clotrimazole]	-1.45		
C[C@@H]1C[C@H]2[C@@H]3CCC4=CC(=O)C=C[C@]4(C)[C@@]3(F)[C@@H](O)C[C@]2(C)[C@@]1(O)C(=O)CO [dexamethasone]	-3.21		
CCN(CC)CC(=O)Nc1c(C)cccc1C [lidocaine]	-0.71		
COc1ccccc1OCCNCC(O)COc1cccc2[nH]c3ccccc3c12 (stereo not shown) [carvedilol]			log10 S [M] [1, 5]: -2.46 M
CC(=O)N1CCN(c2ccc(OCC3COC(Cn4ccnc4)(c4ccc(Cl)cc4Cl)O3)cc2)CC1 (stereo not shown) [ketoconazole]	-2.90		
O=c1[nH]c2ccccc2n1C1CCN(CCCC(c2ccc(F)cc2)c2ccc(F)cc2)CC1 [pimozide]			log10 S [M] [1, 5]: -2.82 M
c1ccc(-c2ccc(C(c3ccccc3)n3ccnc3)cc2)cc1 (stereo not shown) [bifonazole]			log10 S [M] [1, 5]: -1.97 M
Cc1cccc(Nc2ccccc2C(=O)O)c1C [mefenamic acid]	-1.97		
CCCSc1ccc2nc(NC(=O)OC)[nH]c2c1 [albendazole]	-2.91		
CC(C)(Oc1ccc(C(=O)c2ccc(Cl)cc2)cc1)C(=O)O [fenofibric acid]			log10 S [M] [1, 4]: -2.21 M
CC(=O)CC(c1ccccc1)c1c(O)c2ccccc2oc1=O (stereo not shown) [warfarin]	-2.14		
COc1cc(C)c(/C=C/C(C)=C/C=C/C(C)=C/C(=O)O)c(C)c1C [acitretin]			log10 S [M] [1, 4]: -3.13 M
OCCN(CCO)c1nc(N2CCCCC2)c2nc(N(CCO)CCO)nc(N3CCCCC3)c2n1 [dipyridamole]			log10 S [M] [1, 4]: -3.56 M
CCC(C)n1ncn(-c2ccc(N3CCN(c4ccc(OCC5COC(Cn6cncn6)(c6ccc(Cl)cc6Cl)O5)cc4)CC3)cc2)c1=O (stereo not shown) [itraconazole]			log10 S [M] [1, 4]: -3.59 M
O=C1C(CC[S+]([O-])c2ccccc2)C(=O)N(c2ccccc2)N1c1ccccc1 (stereo not shown) [sulfinpyrazone]	-2.33		
COc1ccc(N2CCCCC2)c2sc(NC(=O)c3ccc(F)cc3)nc12 [RO0718883]		-1.84	
COc1ccc(N2CCOCC2)c2sc(NC(=O)N3CCC(CO)CC3)nc12 [RO0725612]		-4.65	
Cc1ccc(Nc2cncnc2)c(C(=O)Nc2ccn(C)n2)n1 [RO5012841]		-2.35	
O=C(N[C@@H]1CCCC[C@H]1O)c1cnc(OCC(F)(F)F)c(-c2ccc(Cl)c(Cl)c2)c1 [RO5267683]		-2.34	

Molecule	log10 S [M] [1, 3] [M]	log10 S [M] [2] [M]	other results
O=C(O)COC(=O)Cc1ccccc1Nc1c(Cl)cccc1Cl [aceclofenac]		-1.84	
Cn1nnnc1Cn1nnc2c(N3CC[C@@H](O)C3)nc(C(C)(C)C)nc21 [RO6868847]		-1.56	
COc1ccc(Cl)cc1S(=O)(=O)N1CCOc2ccc(C(=O)Nc3ccc(C(=O)O)cc3)cc21 [RO5014449]		-4.05	
N#Cc1cc(-c2ccc(F)c(F)c2)c2c(c1)cc1n2CCNC1=O [RO6889199]		-3.08	
Cc1cc(C#Cc2cn(-c3ccc(F)cc3)c(C)n2)ccn1 [RO4582939]		-1.38	
O=C1CCc2cc(OCCCCc3nnnn3C3CCCCC3)ccc2N1 [cilostazol]		-3.68	
CC(C)/N=c1\cc2n(-c3ccc(Cl)cc3)c3ccccc3nc-2cc1Nc1ccc(Cl)cc1 [clofazimine]		-1.65	
C[C@@H](c1ncncc1F)[C@](O)(Cn1cncn1)c1ccc(F)cc1F [voriconazole]		-1.45	
CCc1cc(CCN(Cc2ccc(C(C)(C)C)cc2)C(=O)c2cc(C(F)(F)F)cc(Cl)c2F)ccc1Cl [RO5132822]		-0.16	
OC(c1cc(C(F)(F)F)nc2c(C(F)(F)F)cccc12)C1CCCCN1 (stereo not shown) [mefloquine]		-1.74	
CCCS(=O)(=O)Nc1ccc(F)c(C(=O)c2c[nH]c3ncc(-c4ccc(Cl)cc4)cc23)c1F [RO5185426]		-3.06	
OCCOc1ccc(/C(=C(/CCCl)c2ccccc2)c2ccccc2)cc1 [ospemifene]		-1.47	
FC(F)c1ncn2c1Cn1ncnc1-c1cc(Br)ccc1-2 [RO4938581]		-2.98	
Cn1ncc(C(=O)N2CCOCC2)c1C(=O)Nc1ccn2nc(-c3ccccc3)nc2c1 [RO5545965]		-3.23	
CC1(C)OC2(CCN(C3=NC(=O)C4(Cc5ccccc5C4)O3)CC2)c2cccnc21 [RO6953958]		-2.47	
CCC(CC)CC1(C(=O)Nc2ccccc2SC(=O)C(C)C)CCCCC1 [RO4607381]		-0.41	
COc1ccc(N2CCOCC2)c2sc(NC(=O)c3ccc(C(F)(F)F)cc3)nc12 [RO0720004]		-1.93	
CN(C)CCCN1c2ccccc2Sc2ccc(Cl)cc21 [chlorpromazine]		-0.17	
CCn1c(=O)c2c(nc(/C=C/c3ccc(OC)c(OC)c3)n2C)n(CC)c1=O [istradefylline]		-2.46	

From PMC11220795 (Molecular Pharmaceutics, 2024)
